These results are taken from patent publication US12473295B2, “Substituted straight chain spiro derivatives” (Janssen Pharmaceutica NV, priority 2019, dated 2025).

The target in assay [1] is menin/MLL (terbium chelate-labeled menin, FITC-MBM1 peptide) (Homo sapiens (Human), UniProt O00255). Put plainly: Menin/MLL homogenous time-resolved fluorescence (HTRF) assay.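 Also: IC50 from percent inhibition of HTRF signal, normalized between wells without competitor and wells with a saturating competitor that displaces FITC-MBM1 from His-tagged menin.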 Format: binding. To be noted: HTRF-30 min incubation IC50, 30 min incubation. In general terms: TR-FRET usually uses a lanthanide donor and a delayed reading to cut background.
Chain of menin/MLL (terbium chelate-labeled menin, FITC-MBM1 peptide) (O00255 other isoform, or with tags, fused parts or gaps): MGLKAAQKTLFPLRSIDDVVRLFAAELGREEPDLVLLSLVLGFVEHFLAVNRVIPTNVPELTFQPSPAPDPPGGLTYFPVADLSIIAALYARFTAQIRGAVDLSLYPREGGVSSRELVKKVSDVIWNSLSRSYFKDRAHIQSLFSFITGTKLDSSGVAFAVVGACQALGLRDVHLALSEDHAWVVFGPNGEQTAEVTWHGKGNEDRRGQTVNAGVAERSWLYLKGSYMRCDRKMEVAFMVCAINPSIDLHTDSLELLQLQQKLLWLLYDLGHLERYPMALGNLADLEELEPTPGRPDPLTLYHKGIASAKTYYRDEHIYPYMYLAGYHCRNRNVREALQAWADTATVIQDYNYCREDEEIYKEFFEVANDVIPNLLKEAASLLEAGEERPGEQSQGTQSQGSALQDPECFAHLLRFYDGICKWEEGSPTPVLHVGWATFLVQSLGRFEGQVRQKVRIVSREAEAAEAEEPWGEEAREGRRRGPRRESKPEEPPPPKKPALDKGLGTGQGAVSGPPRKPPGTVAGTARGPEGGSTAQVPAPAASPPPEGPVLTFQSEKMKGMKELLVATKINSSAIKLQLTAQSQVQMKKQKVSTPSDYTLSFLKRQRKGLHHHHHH
Assay [2] concerns MOLM14 cells. Description: Proliferation assay (spheroid growth, 8 days), MOLM14.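 Also: spheroid size read as confluence by live-cell imaging, compounds added at a range of concentrations with 0.3% DMSO, DMSO-treated wells = 0%, highest reference dose = low control.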 The settings on record: Homo sapiens, MOLM-14, […], MOLM14, 8 days; read-out: spheroid assay_OneTime MOLM14 IC50. Format: cell-based, human.
Assay [3] has as its system OCI-AML3 cells. Put plainly: Proliferation assay (spheroid growth, 8 days), OCI-AML3. Format: cell-based, human. To be noted: Homo sapiens, OCI-AML-3, […], OCI-AML3, 8 days. The procedure, abridged: (§1)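 8-day spheroid growth in ultra-low attachment plates; seeding 200 cells (MOLM14, OCI-AML3) or 300 (KO-52); DMSO 0.3%. Day-8 imaging, confluence vs DMSO (0%) and top reference dose (baseline); IC50 by variable-slope fit.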

Assay [4] relates to KO-52 cells. Put plainly: Proliferation assay (spheroid growth, 8 days), KO-52 control cell line. Type of assay: cell-based, human. To be noted: Homo sapiens, […], read-out: spheroid assay_OneTime KO-52 IC50. In short, it runs like this:
as §1

For assay [5], the system named is MEIS1 mRNA. Description: MEIS1 mRNA expression assay (Quantigene Singleplex) in MOLM14 cells.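 Also: MEIS1 transcript levels read by probe hybridization and normalized to RPL28 mRNA, with IC50 fitted to fold changes across a rising compound concentration series.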 Type of assay: cell-based, human. To be noted: Homo sapiens, MOLM-14, 48 h, 48 hours incubation.
Assay [6] addresses hERG (Homo sapiens (Human), UniProt Q12809). Put plainly: Effect on membrane potassium current IKr in hERG-transfected HEK293 cells, Protocol 2 (SyncroPatch 384PE). The settings on record: Protocol 2, hERG-transfected HEK293 cells. Format: cell-based. The procedure:
8) Effect on the Membrane Potassium Current IKr in hERG Transfected Cell Lines
The compound, vehicle control and positive control were tested on hERG-transfected HEK293 cells. A human embryonic kidney cell line (HEK293) with a stable transfection of hERG (Zhou Z et al. Biophysical Journal 1998. 74, 230-241; McDonald T. V. et al, Nature 1997. 388, 289-292) was used (University of Wisconsin, Madison, USA). The cells were kept in culture in MEM (Minimum Essential Medium, Gibco) which was supplemented with (amounts indicated added to 500 ml MEM): 5 ml L-Glutamine-Penicillin-Streptomycin (Sigma), 50 ml Fetal Bovine serum (Bio-Whittaker), 5 ml Non-essential Amino Acids 100× (Gibco), 5 ml sodium pyruvate 100 mM (Gibco) and 4 ml geneticin 50 mg/ml (Gibco) using T175 flasks. The cells were incubated at 37° C. in 5% CO2 atmosphere (in air).
Cell Harvesting for Assay
Cells were harvested as described below using Accumax™ (Sigma) as the dissociating reagent. Cells were then resuspended in a mixture of 33% DMEM/F12 (Dulbecco's Modified Eagle Medium/Nutrient Mixture F-12—Sigma) media/67% extracellular physiological solution.
The flasks were washed twice carefully with ˜5-10 ml phosphate buffered saline (PBS) (Gibco™) containing 2 mM EDTA (Ethylenediaminetetraacetic acid) (Sigma). The cells were dissociated using ˜3 ml of Accumax™ (cell detachment solution) and incubated for ˜5 to 10 min. at 37° C. Cold external physiological solution (2-5 ml) was added and the flasks are incubated at ˜4° C. for 5-10 min. Then, the cell suspension in each flask was gently dissociated with a 5 ml pipette. The cell suspension was transferred to a low binding petri-dish (˜[…]). Each flask was washed with ˜additional 5 ml cold external physiological solution and this solution was also added to the petri-dish. The petri-dish was then incubated for another 5 to 10 minutes at ˜4° C. After another gentle dissociation of the cell suspension in the petri dish, the cells were transferred to a reservoir kept on an orbital shaker at 200 rpm at 16° C. Before experiments were performed, the cells recovered for ˜20 min.
A 10 mM solution of the compound was used and plated in a 384 well plate. Aliquots of the stock solutions are diluted with the recording solution (see section 3) using automated liquid handling (Biomek FXP; final DMSO concentration: 0.03 to 0.3%). A standard range of screening concentrations was used ranging from 1 μM to 30 μM.
A positive control (E-4031) was included within each run to evaluate the sensitivity of the assay.
External and Intracellular Solutions Used in the Experiments
In the table below the composition of the intracellular and external buffer solutions is shown in [mM] (“NMDG” means N-methyl-D-glucamine)
The whole cell patch clamp technique on transfected cells allows the study of ion-channels with no—or limited interference from other ion-channels. The effects of the compounds on the hERG current were studied with an automated planar patch clamp system, SyncroPatch 384PE (Obergrussberger et al, Journal of Laboratory Automation 2016. 21 (6). 779-793). All cells were recorded in the whole cell mode of the patch clamp technique. The module is incorporated in a liquid handling pipetting robot system, Biomek FXP, for application of cells and compounds, vehicle control and positive control.
The different concentrations of the compounds were applied in two cumulatively increasing concentrations for the compounds (1 μM and 10 μM, and 3 μM and 30 μM, respectively). The hERG current was determined as the maximal tail current at −30 mV and percent inhibition upon compound or vehicle and positive control addition was reported.
After cells are caught onto the individual holes of the recording chips using the chip fill solution, the seal is increased with the seal enhancer solution (increased [Ca^2+]; then the cells were washed twice with recording solution before using a pressure protocol to go into the whole cell mode. […]
Background: Block of hERG is tested as a sign of cardiac risk.

Counter-ions that a name gives are not always drawn. Some results are limits rather than exact numbers.

Chain of hERG (Q12809 whole entry): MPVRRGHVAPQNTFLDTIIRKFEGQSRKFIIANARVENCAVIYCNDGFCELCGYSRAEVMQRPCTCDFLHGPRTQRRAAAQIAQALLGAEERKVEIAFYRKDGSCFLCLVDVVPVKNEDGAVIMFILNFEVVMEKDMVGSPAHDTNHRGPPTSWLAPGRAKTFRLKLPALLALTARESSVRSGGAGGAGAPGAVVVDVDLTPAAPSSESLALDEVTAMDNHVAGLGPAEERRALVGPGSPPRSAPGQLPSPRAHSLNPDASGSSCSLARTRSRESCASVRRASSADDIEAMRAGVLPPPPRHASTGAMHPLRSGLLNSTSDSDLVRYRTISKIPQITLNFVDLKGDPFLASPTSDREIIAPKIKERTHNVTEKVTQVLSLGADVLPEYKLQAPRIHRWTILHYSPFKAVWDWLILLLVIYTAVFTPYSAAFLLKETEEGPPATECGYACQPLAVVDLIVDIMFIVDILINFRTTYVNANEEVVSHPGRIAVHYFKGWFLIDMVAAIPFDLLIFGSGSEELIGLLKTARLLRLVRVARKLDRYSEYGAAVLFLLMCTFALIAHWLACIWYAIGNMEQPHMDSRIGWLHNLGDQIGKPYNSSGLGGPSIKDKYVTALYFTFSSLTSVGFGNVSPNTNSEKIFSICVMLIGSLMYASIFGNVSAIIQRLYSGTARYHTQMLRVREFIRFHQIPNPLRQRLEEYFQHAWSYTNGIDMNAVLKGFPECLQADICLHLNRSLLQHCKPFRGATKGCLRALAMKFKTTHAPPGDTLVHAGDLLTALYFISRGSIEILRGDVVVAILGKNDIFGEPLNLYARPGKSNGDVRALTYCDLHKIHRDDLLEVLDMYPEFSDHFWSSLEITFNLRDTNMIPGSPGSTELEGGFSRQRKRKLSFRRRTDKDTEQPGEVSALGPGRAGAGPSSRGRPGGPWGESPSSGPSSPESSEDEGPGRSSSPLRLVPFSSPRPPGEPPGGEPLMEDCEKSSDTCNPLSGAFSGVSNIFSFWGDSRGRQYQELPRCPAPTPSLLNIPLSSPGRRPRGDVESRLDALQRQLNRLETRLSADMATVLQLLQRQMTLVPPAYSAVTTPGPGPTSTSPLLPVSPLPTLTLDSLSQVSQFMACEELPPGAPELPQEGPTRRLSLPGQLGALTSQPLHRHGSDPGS

On to `CC(C)[C@H](CCCN(C)CCC(=O)N(C)C)N1CC2(CCN(c3ncnnc3Oc3ccc(F)cc3C(=O)N(C(C)C)C(C)C)C2)C1` (single isomer, unassigned) [Compound 146, (*S)-2-((5-(2-(6-((3-(dimethylamino)-3-oxopropyl)(methyl)amino)-2-methylhexan-3-yl)-2,6-diazaspiro[3.4]octan-6-yl)-1,2,4-triazin-6-yl)oxy)-5-fluoro-N,N-diisopropylbenzamide fumarate], for which the IC50 (usually the point on the concentration scale where inhibition reaches its midpoint) in assay [1] was 0.081 nM; in assay [2], 320 nM; in assay [3], 1790 nM; in assay [4], above 15000 nM; in assay [5] it was 440 nM; in assay [6], above 30200 nM.

For `CCN(C(=O)c1cc(F)ccc1Oc1nncnc1N1CCC2(C1)CN([C@H](CCN(C)C)C(C)C)C2)C(C)C` (single isomer, unassigned) [Compound 223, (*R)-2-((5-(2-(1-(dimethylamino)-4-methylpentan-3-yl)-2,6-diazaspiro[3.4]octan-6-yl)-1,2,4-triazin-6-yl)oxy)-N-ethyl-5-fluoro-N-isopropylbenzamide fumarate], the IC50 is 0.4 nM in assay [1]; 180 nM in assay [2]; 990 nM in assay [3]; above 15000 nM in assay [4]; 200 nM in assay [5]; above 30200 nM in assay [6].

On to `CCN(C(=O)c1cc(F)ccc1Oc1nncnc1N1CCC2(C1)CN([C@H](CCNCCOC)C(C)C)C2)C(C)C` (single isomer, unassigned) [Compound 227, (*R)—N-ethyl-5-fluoro-N-isopropyl-2-((5(2-(1-((2-methoxyethyl)amino)-4-methylpentan-3-yl)-2,6-diazaspiro[3.4]octan-6-yl)-1,2,4-triazin-6-yl)oxy)benzamide fumarate], for which the IC50 in assay [1] is 0.15 nM; in assay [2], 46 nM; in assay [3], 130 nM; in assay [4], above 15000 nM; in assay [5], 76 nM; in assay [6], above 30200 nM.

Take `CCN(C(=O)c1cc(F)ccc1Oc1nncnc1N1CCC2(C1)CN([C@H](C[C@H](C)CN(C)CCOC)C(C)C)C2)C(C)C` (single isomer, unassigned) [Compound 242]: the IC50 is 0.26 nM in assay [1]; 170 nM in assay [2]; 1070 nM in assay [3]; above 15000 nM in assay [4]; 230 nM in assay [5]; above 30200 nM in assay [6].

Consider `CCN(C(=O)c1cc(F)ccc1Oc1nncnc1N1CCC2(C1)CN([C@H](CCCN(C)CCN(C)C(C)=O)C(C)C)C2)C(C)C` [Compound 148, (R)-N-ethyl-5-fluoro-N-isopropyl-2-((5-(2-(2-methyl-6-(methyl(2-(N-methylacetamido)ethyl)amino)hexan-3-yl)-2,6-diazaspiro[3.4]octan-6-yl)-1,2,4-triazin-6-yl)oxy)benzamide fumarate], for which the IC50 in assay [1] was 0.35 nM; in assay [2] it was 41 nM; in assay [3], 340 nM; in assay [4] it was above 15000 nM; in assay [5], 60 nM; in assay [6], 12300 nM.
